Laboratory results as given in BindingDB's records for doi:10.1021/acsmedchemlett.0c00586 (University of Iowa, 2021).
pEC50: −log10 of the molar value.

test: Binding affinity to BTN3A1 in human PBMC-derived Vgamma9/Vdelta2 T cells assessed as induction of Vgamma9Vdelta2 T cells proliferation incubated for 3 days by gamma delta TCR/PE-CD3+ antibody staining based FACS analysis

| SMILES | pEC50 |
| --- | --- |
| CCOC(=O)CNP(=O)(CC/C=C(C)/C=N/O)Oc1ccccc1 (stereo not given) | 6.10 |
| CCOC(=O)CNP(=O)(CCC=C(C)C)Oc1cccc2ccccc12 (stereo not given) | < 4.00 |
| C/C(=C\CCP(=O)(OCOC(=O)C(C)(C)C)Oc1ccc2ccc(=O)oc2c1)CO (stereo not given) | 8.10 |
| CCOC(=O)CNP(=O)(CC/C=C(\C)C=O)Oc1ccccc1 (stereo not given) | 7.70 |
| C/C(C=O)=C\CCP(=O)(OCOC(=O)C(C)(C)C)Oc1ccc2ccccc2c1 (stereo not given) | 8.34 |
| C/C(C=O)=C\CCP(=O)(OCOC(=O)C(C)(C)C)Oc1ccc2ccc(=O)oc2c1 (stereo not given) | 7.92 |
| C/C(C=O)=C\CCP(=O)(NCC(=O)OC(C)C)Oc1ccccc1 (stereo not given) | 7.31 |
| C/C(C=O)=C\CCP(=O)(OCOC(=O)C(C)(C)C)OCOC(=O)C(C)(C)C | 7.33 |
| COC(=O)CNP(=O)(CC/C=C(\C)C=O)Oc1ccccc1 (stereo not given) | 7.33 |
| CC(C)=CCCP(=O)(O)O | < 4.00 |
